From article PMC4704150 (Antimicrobial Agents and Chemotherapy, 2015)
Where two headings read alike, the source gives them in different places. Marks after values point to notes of the source that are not given here.

Assays:
[1] = Drug-drug interaction study, 2D regimen with warfarin; format: in vivo, human healthy volunteers; conditions: for Cmax, Coadministration / AUC (AUC∞), Alone: warfarin study, geometric mean (%CV); for Cmax, Coadministration: warfarin + 2D regimen; for AUC (AUC∞), Alone: warfarin without 2D regimen; for change in the Cmax and AUC values upon coadministration: warfarin + 2D regimen vs alone
[2] = format: in vivo, human healthy volunteers; conditions: for change in the Cmax and AUC values in the presence of the 2D regimen: except escitalopram AUC
[3] = in vitro; cited from earlier work
[4] = Drug-drug interaction study, 2D regimen with duloxetine, plasma pharmacokinetics; format: in vivo, human healthy volunteers; conditions: for change in the Cmax and AUC values upon coadministration: duloxetine + 2D regimen vs alone
[5] = Drug-drug interaction study, 2D regimen with rosuvastatin; format: in vivo, human healthy volunteers; conditions: for increase in AUC upon coadministration / increase in Cmax upon coadministration: rosuvastatin + 2D regimen vs alone
[6] = Drug-drug interaction study, 2D regimen with omeprazole; format: in vivo, human healthy volunteers; conditions: for change in the Cmax and AUC values upon coadministration: 2D regimen + omeprazole vs 2D regimen alone
[7] = format: in vivo, human healthy volunteers; conditions: coadministration vs alone; except in the ketoconazole study
[8] = Drug-drug interaction study, 2D regimen with pravastatin; format: in vivo, human healthy volunteers; conditions: for increase in AUC upon coadministration / increase in Cmax upon coadministration: pravastatin + 2D regimen vs alone
[9] = Drug-drug interaction study, 2D regimen with digoxin; format: in vivo, human healthy volunteers; conditions: for change in the Cmax and AUC values upon coadministration: 2D regimen + digoxin vs 2D regimen alone
[10] = human, in vivo
[11] = Drug-drug interaction study, 2D regimen with ketoconazole; format: in vivo, human healthy volunteers; conditions: ketoconazole + 2D regimen vs alone
[12] = test system: HCV subtypes 1a, 1b, 2a, 3a, 4a, and 6a; conditions: cited from earlier work
[13] = test system: genotypes other than genotype 1; conditions: cited from earlier work
[14] = cited from earlier work
[15] = test system: organic anion-transporting polypeptide 1B1/B3 (OATP1B1/B3); conditions: in vitro, at clinically relevant concentrations; cited from earlier work
P-glycoprotein (P-gp) = conditions: in vitro, at clinically relevant concentrations; cited from earlier work
[16] = test system: breast cancer resistance protein (BCRP); conditions: in vitro, at clinically relevant concentrations; cited from earlier work
[17] = escitalopram + 2D regimen vs escitalopram alone
[18] = escitalopram study, escitalopram + 2D regimen, geometric mean (%CV)
[19] = 2D regimen + rosuvastatin vs 2D regimen alone
[20] = omeprazole + 2D regimen vs omeprazole alone
[21] = digoxin + 2D regimen vs digoxin alone

SMILES: CC(=O)C[C@H](c1ccccc1)c1c(O)c2ccccc2oc1=O [R-Warfarin, R-warfarin]
- Cmax, Coadministration [1]: 255 (16) ng/ml
- AUC (AUC∞), Alone [1]: 19,900 (21)^b ng · h/ml

SMILES: CNCCC[C@@]1(c2ccc(F)cc2)OCc2cc(C#N)ccc21 [S-Desmethylcitalopram, S-desmethylcitalopram]
- change in the Cmax and AUC values in the presence of the 2D regimen [2, 17]: ≤ 20%
- AUC (AUC∞), Coadministration [2, 18]: 167 (11)^b ng · h/ml
- Cmax, Coadministration [2, 18]: 1.77 (26) ng/ml
- AUC (AUC∞), Alone ([2]; escitalopram study, escitalopram without 2D regimen, geometric mean (%CV)): 153 (16)^b ng · h/ml

SMILES: CC(C)c1nc(CN(C)C(=O)N[C@H](C(=O)N[C@@H](Cc2ccccc2)C[C@H](O)[C@H](Cc2ccccc2)NC(=O)OCc2cncs2)C(C)C)cs1 [Ritonavir, ritonavir]
- metabolic pathway [3]: primarily metabolized by cytochrome P450 3A (CYP3A)
- change in the Cmax and AUC values upon coadministration [4]: ≤ 10%
- change in Cmax and AUC values upon coadministration [5, 19]: ≤ 12%
- change in the Cmax and AUC values upon coadministration [6]: ≤ 7%
- Tmax and t1/2 (where calculated) [7]: not affected in a meaningful way
- increase in AUC upon coadministration [8]: 37%
- increase in Cmax upon coadministration [8]: 37%
- change in the Cmax and AUC values upon coadministration [1]: ≤ 15%
- change in the Cmax and AUC values upon coadministration [9]: ≤ 15%

SMILES: COc1ccc2[nH]c([S+]([O-])Cc3ncc(C)c(OC)c3C)nc2c1 (stereo not drawn) [Omeprazole, omeprazole]
- AUC(0-t) ([6]; human, plasma, 40 mg): 1170 ng·h/mL
- decrease in exposures upon coadministration [6, 20]: approximately 50%
- reduction in AUC in the presence of the 2D regimen [6, 20]: 54%
- reduction in Cmax in the presence of the 2D regimen [6, 20]: 52%

SMILES: C=CCN1CC[C@]23c4c5ccc(O)c4O[C@H]2C(=O)CC[C@@]3(O)[C@H]1C5 [Naloxone, naloxone]
- AUC (AUCtau, AUC24), dose normalized, Alone [10]: 139 (53)^d^,^j pg · h/ml/mg
- AUC (AUCtau, AUC24), dose normalized, Coadministration [10]: 154 (76)^d^,^j pg · h/ml/mg
- Cmax, dose normalized, Alone [10]: 59.0 (44)^i pg/ml/mg
- Cmax, dose normalized, Coadministration [10]: 58.1 (61)^i pg/ml/mg
- change in the Cmax and AUC values upon coadministration [10]: ≤ 11%

SMILES: COC(=O)N[C@H](C(=O)N1CCC[C@H]1C(=O)Nc1ccc([C@@H]2CC[C@@H](c3ccc(NC(=O)[C@@H]4CCCN4C(=O)[C@@H](NC(=O)OC)C(C)C)cc3)N2c2ccc(C(C)(C)C)cc2)cc1)C(C)C [Ombitasvir, ombitasvir]
- decrease in Cmax upon coadministration [11]: 2%
- increase in AUC upon coadministration [11]: 26%
- metabolic pathway [3]: predominantly metabolized by amide hydrolysis followed by oxidative metabolism
- change in the Cmax and AUC values upon coadministration [4]: ≤ 10%
- change in Cmax and AUC values upon coadministration [5, 19]: ≤ 12%
- lower Cmax upon coadministration [5, 19]: 12%
- change in the Cmax and AUC values upon coadministration [6]: ≤ 7%
- Tmax and t1/2 (where calculated) [7]: not affected in a meaningful way
- decrease in Cmax or AUC value upon coadministration ([8]; 2D regimen + pravastatin vs 2D regimen alone): ≤ 6%
- in vitro antiviral activity [12]: show in vitro antiviral activity
- change in the Cmax and AUC values upon coadministration [1]: ≤ 15%
- change in the Cmax and AUC values upon coadministration [9]: ≤ 15%

SMILES: CNCC[C@H](Oc1cccc2ccccc12)c1cccs1 [Duloxetine, duloxetine]
- change in the Cmax and AUC values upon coadministration [4]: ≤ 20%
- AUC(0-inf) ([4]; human, plasma, oral, 60 mg): 648 ng·h/mL

SMILES: CC[C@H](C)C(=O)O[C@H]1C[C@H](O)C=C2C=C[C@H](C)[C@H](CC[C@@H](O)C[C@@H](O)CC(=O)O)[C@H]21 [Pravastatin, pravastatin]
- increase in AUC upon coadministration [8]: 76%
- increase in Cmax upon coadministration [8]: 43%

SMILES: CC(C)c1nc(N(C)S(C)(=O)=O)nc(-c2ccc(F)cc2)c1/C=C/[C@@H](O)C[C@@H](O)CC(=O)O [Rosuvastatin, rosuvastatin]
- increase in AUC upon coadministration [5]: 33%
- increase in Cmax upon coadministration [5]: 161%
- increase in exposures upon coadministration ([5]; rosuvastatin + 2D regimen vs rosuvastatin alone): ≤ 161%

SMILES: CC(=O)C[C@@H](c1ccccc1)c1c(O)c2ccccc2oc1=O [S-Warfarin, S-warfarin]
- change in the Cmax and AUC values upon coadministration [1]: ≤ 15%
- Cmax, Coadministration [1]: 240 (14) ng/ml
- AUC (AUC∞), Alone [1]: 13,000 (25)^b ng · h/ml

SMILES: COc1c(-c2ccc3cc(NS(C)(=O)=O)ccc3c2)cc(-n2ccc(=O)[nH]c2=O)cc1C(C)(C)C [Dasabuvir, dasabuvir]
- activity against HCV genotypes other than genotype 1 [13]: not active

SMILES: C[C@H]1O[C@@H](O[C@H]2[C@@H](O)C[C@H](O[C@H]3[C@@H](O)C[C@H](O[C@H]4CC[C@@]5(C)[C@H](CC[C@@H]6[C@@H]5C[C@@H](O)[C@]5(C)[C@@H](C7=CC(=O)OC7)CC[C@]65O)C4)O[C@@H]3C)O[C@@H]2C)C[C@H](O)[C@@H]1O [Digoxin, digoxin]
- increase in AUC upon coadministration [9, 21]: 36%
- increase in C24 upon coadministration [9, 21]: 24%
- increase in Cmax upon coadministration [9, 21]: 58%
- ratio of fraction excreted (fraction of unchanged drug eliminated in the urine) ([9]; digoxin + 2D regimen vs digoxin alone, urine): 1.01
- AUC(0-inf) ([9]; human, plasma, 0.5 mg): 27.8 ng·h/mL

SMILES: Cc1cnc(C(=O)N[C@H]2CCCCC/C=C\[C@@H]3C[C@@]3(C(=O)NS(=O)(=O)C3CC3)NC(=O)[C@@H]3C[C@@H](Oc4nc5ccccc5c5ccccc45)CN3C2=O)cn1 [Paritaprevir, paritaprevir]
- increase in AUC upon coadministration [11]: 116%
- increase in Cmax upon coadministration [11]: 72%
- mean t1/2, fold longer upon coadministration [11]: more than 2 fold
- increase in exposures upon coadministration ([11]; Cmax and AUC): up to 116%
- exposures higher than those observed with the 150-mg paritaprevir dose ([14]; paritaprevir 200 mg): approximately 93%
- exposures higher than those observed with the 150-mg paritaprevir dose ([14]; paritaprevir 250 mg): ~250%
- metabolic pathway [3]: primarily metabolized by cytochrome P450 3A (CYP3A)
- change in the Cmax and AUC values upon coadministration [4]: ≤ 10%
- increase in AUC upon coadministration [5]: 22%
- increase in Cmax upon coadministration [5]: 40%
- change in the Cmax and AUC values upon coadministration [6]: ≤ 7%
- Tmax and t1/2 (where calculated) [7]: not affected in a meaningful way
- OATP1B1/B3 inhibition [15]: inhibitor
- increase in AUC upon coadministration [8]: 33%
- increase in Cmax upon coadministration [8]: 44%
- in vitro antiviral activity [12]: show in vitro antiviral activity
- change in the Cmax and AUC values upon coadministration [1]: ≤ 15%
- P-gp inhibition (P-glycoprotein (P-gp)): potential inhibitors
- BCRP inhibition [16]: potential inhibitors
- change in the Cmax and AUC values upon coadministration [9]: ≤ 15%

SMILES: CN(C)CCC[C@@]1(c2ccc(F)cc2)OCc2cc(C#N)ccc21 [Escitalopram, escitalopram]
- decrease in AUC in the presence of the 2D regimen [2, 17]: 25%
- change in the Cmax and AUC values in the presence of the 2D regimen [2, 17]: ≤ 20%
- AUC(0-inf) ([2]; human, plasma, 10 mg): 262 ng·h/mL
